target: TNFα (Homo sapiens (Human), UniProt P01375); assay: TNF induced HEK-Blue assay; assay type: cell-based; settings: TNFα 0.5 ng/ml; HEK-Blue-CD40L cells, NF-kB-driven secreted alkaline phosphatase reporter; 18 h
Procedure: TNF or CD40L-Induced HEK-Blue Assay
Test compounds serially diluted in DMSO were plated in an assay plate (LABCYTE, Cat. # LP-0200) at final concentrations ranging from 0.004 μM to 25 μM. TNFα (final concentration 0.5 ng/ml) or CD40L (final concentration 30 ng/ml) in assay buffer [DMEM, 4.5 g/l glucose (Gibco, Cat. 21063-029), 10% FBS (Sigma, F4135), 1% Penicillin-Streptomycin (Gibco, Cat. 15140-122), 1% Anti-Anti (Gibco, Cat. 15240-112) and 2 mM L-glutamine (Gibco, Cat. 25030-081)] was then added to the assay plate. After a 30 minute pre-incubation at 37° C. and 5% CO2, HEK-Blue™-CD40L cells (INVIVOGEN, Cat. Code hkb-cd40) containing a NF-kB-driven secreted alkaline phosphatase reporter gene were seeded into the assay plate at a density of 20,000 cells per well. This plate was then incubated for 18 h at 37° C. and 5% CO2. Secreted alkaline phosphatase expression was measured using QUANTI-Blue™ (INVIVOGEN, Cat. Code rep-qb1) according to manufacturer's specifications and the assay plate was read on a PerkinElmer Envision at 620 nm.
Inhibition data for the test compound over a range of concentrations was plotted as percentage inhibition of the test compound (100%=maximum inhibition). IC50 values were determined after correcting for background [(sample read−mean of low control)/(mean of high control−mean of low control)] where by the low control is DMSO without stimulation and high control is DMSO with stimulation. The IC50 is defined as the concentration of test compound which produces 50% inhibition and was quantified using the 4 parameter logistic equation to fit the data.

Sequence of TNFα (P01375 77-233): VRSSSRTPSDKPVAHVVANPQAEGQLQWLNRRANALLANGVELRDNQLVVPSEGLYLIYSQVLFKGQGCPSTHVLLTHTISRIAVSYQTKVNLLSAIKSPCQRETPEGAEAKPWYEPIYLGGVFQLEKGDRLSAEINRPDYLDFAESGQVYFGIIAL

IC50	SMILES
< 1000 nM	O=C1CN(c2ncc(-c3cc4c(cc3F)nc3n4[C@@H](c4ccccc4OC(F)F)[C@H]4C[C@@H]34)cn2)CCN1 [Example 9, 4-(5-((1aR,8R,8aS)-8-(2-(difluoromethoxy)phenyl)-4-fluoro-1,1a,8,8a-tetrahydrobenzo[d]cyclopropa[3,4]pyrrolo[1,2-a]imidazol-5-yl)pyrimidin-2-yl)piperazin-2-one]
1000 to 10000 nM	N#Cc1ccc(-c2cc3c(cc2F)nc2n3[C@@H](c3ccccc3OC(F)F)[C@H]3C[C@@H]23)cn1 [Example 10, 5-((1aR,8R,8aS)-8-(2-(difluoromethoxy)phenyl)-4-fluoro-1,1a,8,8a-tetrahydrobenzo[d]cyclopropa[3,4]pyrrolo[1,2-a]imidazol-5-yl)picolinonitrile]
< 1000 nM	CC(C)(O)c1ccc(-c2cc3c(cc2F)nc2n3[C@@H](c3ccccc3OC(F)F)[C@H]3C[C@@H]23)cc1 [Example 12, 2-(4-((1aR,8R,8aS)-8-(2-(difluoromethoxy)phenyl)-4-fluoro-1,1a,8,8a-tetrahydrobenzo[d]cyclopropa[3,4]pyrrolo[1,2-a]imidazol-5-yl)phenyl)propan-2-ol]
< 1000 nM	OC1(c2ncc(-c3cc4c(cc3F)nc3n4[C@@H](c4ccccc4OC(F)F)[C@H]4C[C@@H]34)cn2)COC1 [Example 14, 3-(5-((1aR,8R,8aS)-8-(2-(difluoromethoxy)phenyl)-4-fluoro-1,1a,8,8a-tetrahydrobenzo[d]cyclopropa[3,4]pyrrolo[1,2-a]imidazol-5-yl)pyrimidin-2-yl)oxetan-3-ol]
1000 to 10000 nM	CC(C)(O)Cn1cc(-c2cc3c(cc2F)nc2n3[C@@H](c3ccccc3OC(F)F)[C@H]3C[C@@H]23)cn1 [Example 16, 1-(4-((1aR,8R,8aS)-8-(2-(difluoromethoxy)phenyl)-4-fluoro-1,1a,8,8a-tetrahydrobenzo[d]cyclopropa[3,4]pyrrolo[1,2-a]imidazol-5-yl)-1H-pyrazol-1-yl)-2-methylpropan-2-ol]
< 1000 nM	O=C(O)CN1CCN(c2ncc(-c3cc4c(cc3F)nc3n4[C@H](c4ccccc4OC(F)F)[C@@H]4C[C@H]34)cn2)CC1 [Example 18, 2-(4-(5-((1aS,8S,8aR)-8-(2-(difluoromethoxy)phenyl)-4-fluoro-1,1a,8,8a-tetrahydrobenzo[d]cyclopropa[3,4]pyrrolo[1,2-a]imidazol-5-yl)pyrimidin-2-yl)piperazin-1-yl)acetic acid]
1000 to 10000 nM	CC(C)(O)c1ncc(-c2cc3c(cc2F)nc2n3[C@@H](c3ccccc3Oc3ccccc3)[C@@H]3C[C@H]23)cn1 [Example 27, 2-(5-((1aS,8R,8aR)-4-fluoro-8-(2-phenoxyphenyl)-1,1a,8,8a-tetrahydrobenzo[d]cyclopropa[3,4]pyrrolo[1,2-a]imidazol-5-yl)pyrimidin-2-yl)propan-2-ol]
1000 to 10000 nM	CC(C)(O)c1ncc(-c2cc3c(cc2F)nc2n3[C@@H](c3ccccc3Oc3ccccc3F)[C@@H]3C[C@H]23)cn1 [Example 29, 2-(5-((1aS,8R,8aR)-4-fluoro-8-(2-(2-fluorophenoxy)phenyl)-1,1a,8,8a-tetrahydrobenzo[d]cyclopropa[3,4]pyrrolo[1,2-a]imidazol-5-yl)pyrimidin-2-yl)propan-2-ol]
10000 to 25000 nM	CC(C)(O)c1ncc(-c2cc3c(cc2F)nc2n3[C@H](c3ccccc3Oc3ccccc3F)[C@@H]3C[C@H]23)cn1 [Example 30, 2-(5-((1aS,8S,8aR)-4-fluoro-8-(2-(2-fluorophenoxy)phenyl)-1,1a,8,8a-tetrahydrobenzo[d]cyclopropa[3,4]pyrrolo[1,2-a]imidazol-5-yl)pyrimidin-2-yl)propan-2-ol]
1000 to 10000 nM	Fc1cc2nc3n(c2cc1-c1cnc(N2CCOCC2)nc1)[C@H](c1ccccc1OC(F)F)[C@@H]1C[C@H]31 [Example 32, 4-(5-((1aS,8S,8aR)-8-(2-(difluoromethoxy)phenyl)-4-fluoro-1,1a,8,8a-tetrahydrobenzo[d]cyclopropa[3,4]pyrrolo[1,2-a]imidazol-5-yl)pyrimidin-2-yl) morpholine]

More lines, now with the values behind:

SMILES	IC50
CNC(=O)c1ccc(-c2cc3c(cc2F)nc2n3[C@@H](c3ccccc3OC(F)F)[C@H]3C[C@@H]23)cn1 [Example 8, 5-((1aR,8R,8aS)-8-(2-(difluoromethoxy)phenyl)-4-fluoro-1,1a,8,8a-tetrahydrobenzo[d]cyclopropa[3,4]pyrrolo[1,2-a]imidazol-5-yl)-N-methylpicolinamide]	1000 to 10000 nM
CC(C)(O)c1ccc(-c2cc3c(cc2F)nc2n3[C@@H](c3ccccc3OC(F)F)[C@H]3C[C@@H]23)cn1 [Example 13, 2-(5-((1aR,8R,8aS)-8-(2-(difluoromethoxy)phenyl)-4-fluoro-1,1a,8,8a-tetrahydrobenzo[d]cyclopropa[3,4]pyrrolo[1,2-a]imidazol-5-yl)pyridin-2-yl)propan-2-ol]	< 1000 nM
O=S1(=O)CCN(c2ncc(-c3cc4c(cc3F)nc3n4[C@@H](c4ccccc4OC(F)F)[C@H]4C[C@@H]34)cn2)CC1 [Example 15, 4-(5-((1aR,8R,8aS)-8-(2-(difluoromethoxy)phenyl)-4-fluoro-1,1a,8,8a-tetrahydrobenzo[d]cyclopropa[3,4]pyrrolo[1,2-a]imidazol-5-yl)pyrimidin-2-yl) thiomorpholine 1,1-dioxide]	< 1000 nM
CC(C)(C)OC(=O)N1CC=C(c2cc3c(cc2F)nc2n3[C@@H](c3ccccc3OC(F)F)[C@H]3C[C@@H]23)CC1 [Example 17, tert-butyl 4-((1aR,8R,8aS)-8-(2-(difluoromethoxy)phenyl)-4-fluoro-1,1a,8,8a-tetrahydrobenzo[d]cyclopropa[3,4]pyrrolo[1,2-a]imidazol-5-yl)-3,6-dihydropyridine-1(2H)-carboxylate]	1000 to 10000 nM
NC(=O)c1ccc(-c2cc3c(cc2F)nc2n3[C@H](c3ccccc3OC(F)F)[C@@H]3C[C@H]23)cn1 [Example 19, 5-((1aS,8S,8aR)-8-(2-(difluoromethoxy)phenyl)-4-fluoro-1,1a,8,8a-tetrahydrobenzo[d]cyclopropa[3,4]pyrrolo[1,2-a]imidazol-5-yl)picolinamide]	1000 to 10000 nM
NC(=O)c1ccc(-c2cc3c(cc2F)nc2n3[C@@H](c3ccccc3OC(F)F)[C@@H]3C[C@H]23)cn1 [Example 22, 5-((1aS,8R,8aR)-8-(2-(difluoromethoxy)phenyl)-4-fluoro-1,11a,8,8a-tetrahydrobenzo[d]cyclopropa[3,4]pyrrolo[1,2-a]imidazol-5-yl)picolinamide]	< 1000 nM
CC(C)(O)c1ncc(-c2cc3c(cc2F)nc2n3[C@H](c3ccccc3Oc3ccccc3)[C@@H]3C[C@H]23)cn1 [Example 28, 2-(5-((1aS,8S,8aR)-4-fluoro-8-(2-phenoxyphenyl)-1,1a,8,8a-tetrahydrobenzo[d]cyclopropa[3,4]pyrrolo[1,2-a]imidazol-5-yl)pyrimidin-2-yl)propan-2-ol]	1000 to 10000 nM
Fc1cc2nc3n(c2cc1-c1cnc(N2CCOCC2)nc1)[C@@H](c1ccccc1OC(F)F)[C@@H]1C[C@H]31 [Example 31, 4-(5-((1aS,8R,8aR)-8-(2-(difluoromethoxy)phenyl)-4-fluoro-1,1a,8,8a-tetrahydrobenzo[d]cyclopropa[3,4]pyrrolo[1,2-a]imidazol-5-yl)pyrimidin-2-yl) morpholine]	< 1000 nM

— patent US10335392B2, “Cyclic compounds useful as modulators of TNF α” (BRISTOL-MYERS SQUIBB COMPANY, priority 2015, dated 2019)
